Laboratory results published in patent US20250127803A1, “2'-FUCOSYLLACTOSE AND LACTO-N-NEOTETRAOSE FOR PREVENTING AND TREATING OVERWEIGHT” (HEALTH AND HAPPINESS (H&H) HONG KONG LTD, priority 2022, published 2025).
“And” between values parts separate entries of the source, which are not always exact repeats. Equal values may be shown once.

Tested on: C. elegans
Experiment: Fat-reducing effect on C. elegans (Nile red lipid staining, fluorescence)
Format: in vivo
Settings: for Fat Reduction (%) vs. Control: vs NG medium; for effectiveness in reducing the lipid level relative to Orlistat as reference: specific concentrations, summary statement
Protocol: Plates with a diameter of 100×15 mm have been filled with NGM (Nematode Growth Medium, as standard, hereafter NG medium (Fisher Scientific). Nile red (Sigma, St. Louis, MO, USA) was added to the solid surface of the NGM plates seeded at a final concentration of 0.05 μg/mL
For each of the experiments 2 NG medium plates were used, which had been supplemented with 2′-fucosyllactose in different amounts each, i.e. […] As negative control two plates with NG medium were used. As positive control two NG medium plates with Orlistat® were used.
60 synchronized worms at young adult stage were added to each plate with Escherichia coli strain OP50 as a food source and cultured under aerobic conditions at 20° C.
All worms were subjected to a lipid staining method, following the protocol previously described (Martorell et al., 2016).
All nematodes from each plate were transferred to M9 buffer and the fluorescence was measured using a FP-8300 system (JASCO Analytical Instrument, Easton, MD, USA). Fat deposition in worms was determined by one-way ANOVA test, using a Tukey's multiple comparison post-test.
Results are given as the mean±standard deviation. The statistical analyses were performed with GraphPad Prism 9 software. Statistical significance is indicated at 5%. […]

| Molecule | Fat Reduction (%) vs. Control (0.01 mg/L in NG medium) | Fat Reduction (%) vs. Control (0.1 mg/L in NG medium) | Fat Reduction (%) vs. Control (1 mg/L in NG medium) | fat reduction compared to negative control conditions (NG medium) (1 mg/mL) | effectiveness relative to the positive control orlistat (1 mg/ml) | Fat Reduction (%) vs. Control (10 mg/L in NG medium) | fat reduction compared to negative control conditions (NG medium) (10 mg/mL) | effectiveness relative to the positive control orlistat (10 mg/ml) | Fat Reduction (%) vs. Control (30 mg/L in NG medium) | effectiveness in reducing the lipid level relative to Orlistat as reference | effect on fat content in nematodes (the lower and higher doses) | Fat Reduction (%) vs. Control (6 μg/mL in NG medium, positive control) | Fat Reduction (%) vs. Control (6 μg/mL in NG medium, positive control, listed as Orlistate) | Fat Reduction (%) vs. Control (6 μg/mL in NG medium, positive control, listed as orlistat) |
| --- | --- | --- | --- | --- | --- | --- | --- | --- | --- | --- | --- | --- | --- | --- |
| 2′-fucosyllactose [2′-FL] | −2.38% | 11.37% | 23.61% | 23.6% | about 78% | 25.35% | 25.3% | ~83% | 5.28% | 70-90% | no functional effect | – | – | – |
| CC(=O)N[C@H]1[C@H](O[C@H]2[C@@H](O)[C@@H](CO)O[C@@H](O[C@H]3[C@H](O)[C@@H](O)C(O)O[C@@H]3CO)[C@@H]2O)O[C@H](CO)[C@@H](O[C@@H]2O[C@H](CO)[C@H](O)[C@H](O)[C@H]2O)[C@@H]1O (mixture of isomers) [LNnT, Lacto-N-neotetraose] | −5.01% | −0.08% | 3.08% | – | – | 14.05% | 14.05% | about 45% | −2.39% | 40-60% | – | – | – | – |
| CCCCCCCCCCC[C@@H](C[C@@H]1OC(=O)[C@H]1CCCCCC)OC(=O)[C@H](CC(C)C)NC=O [Orlistat, (25)-2-Formylamino-4-methylpentansäure-(1S)-1-{[(35,4S)-3-hexyl-2-oxo-4-oxetanyl]methyl}dodecylester, reference compound] | – | – | – | – | – | – | – | – | – | – | – | 31.14% and 30.40% | 31.14% | 30.4% |
